Experimental data: patent publication US20050136488A1, “Cellular membrane protein assay” (priority 2003, published 2005)
Read-outs that look alike come from different tables or passages of the source. Values belong to the substance of their own block, whether it stands above or below them.

Experiments:
[1] = system: GLUT4-PL in CHO/pGLUT4-PL.1 cells; conditions: 30 min, serum-containing media, thrombin 20 units/ml
Description: In this experiment, CHO/pGLUT4-PL.1 cells were treated for 30 min with 0, 0.1, 1, and 10 μM insulin in serum-containing media. The liquid above the cells was then replaced with buffer containing thrombin at 20 units/ml and processed for the intact-cell EFC assay.
1) Seed cells into individual wells at a density of 10,000 cells in 100 μl media. For transient transfectants, replace the media above cells with fresh media one day post-transfection. Perform the intact-cell EFC assay two days after seeding the cells. To assay GLUT4-PL at the cell surface under basal growth conditions (serum-containing media, no exogenous insulin), proceed to step 3.
2) For insulin induction, add 20 μl/well of insulin diluted in media to 6× system concentration (e.g., add 20 μl of 6 μM insulin to the 100 μl liquid above cells to achieve an insulin system concentration of 1 μM). Return plate to incubator for 30 min. Starving cells of serum 2-to-4 hours prior to adding insulin diluted in serum-free media may achieve a larger insulin-response window.
3) Remove the media above the cells by aspiration. Add 50 μl/well thrombin solution (20 units/ml thrombin; 1×PBS; 0.1 mg/ml BSA; 10 mM each KF and NaAzide (NaN3)). Return plate to incubator for 1 hr. […]
5) Add 30 μl/well CL Substrate. […] Readings are taken at periodic intervals from 15 min to 1 hr on a luminescence plate reader.

[2] = biological target: T1, GLUT4-PL in CHO/pGLUT4-PL.1 cells (Homo sapiens, UniProt P14672, INS67[…]); assay: intact-cell EFC assay, thrombin release of ProLabel from GLUT4-PL; type: cell-based; conditions: thrombin 60 units/ml, intact CHO cells expressing pGLUT4-PL.1
T1 construct: expressed in transfected cells; host or cells: CHO cells transfected with plasmid pGLUT4-PL.1
Description: Detection of GLUT4-PL after protease cleavage. Central to the concept of using EFC to monitor GLUT4-PL at the cell surface is the proteolytic release of the internal ProLabel tag from the protein's first exofacial loop. Initial studies were therefore directed at developing and characterizing an intact-cell EFC protocol using thrombin protease. All of the experiments described below were carried out in 96-well assay plates. To test whether thrombin treatment could enhance EFC signal, intact cells expressing pGLUT4-PL.1 were treated with 50 μl buffer alone or buffer containing thrombin at increasing concentrations. Eighty μl of a solution containing EA and the protease inhibitor AEBSF (7.5 mM final concentration) were added subsequently, followed by 30 μl of chemiluminescent substrate. Thrombin treatment led to a dose-dependent enhancement of EFC activity, with 60 units/ml enhancing EFC activity 4.4-fold over untreated cells (FIG. 4). To test whether thrombin proteolytic activity per se, and not a non-specific component of the thrombin formulation was responsible for the increased EFC signal, a control experiment was performed by inactivating thrombin with AEBSF prior to its addition to cells.

HeLa/IκB-PL cells = assay: cell integrity control, intact-cell EFC assay on cells expressing cytoplasmic reporter IκB-PL; type: cell-based; conditions: series of increasing thrombin concentrations
Description: CHO/pGLUT4-PL.1 and HeLa/IκB-PL cells were assayed in parallel with a series of increasing thrombin concentrations (FIG. 6). As had been observed above, thrombin treatment of CHO/pGLUT4-PL.1 cells led to a dose-dependent increase in EFC activity.

[3] = biological target: GLUT4-ProLabel fusion protein encoded by plasmid pGLUT4-PL.1 (human); assay: cell-based or functional assay
Chain of GLUT4-ProLabel fusion protein encoded by plasmid pGLUT4-PL.1 (human) (chain, as listed by the source limits assumed): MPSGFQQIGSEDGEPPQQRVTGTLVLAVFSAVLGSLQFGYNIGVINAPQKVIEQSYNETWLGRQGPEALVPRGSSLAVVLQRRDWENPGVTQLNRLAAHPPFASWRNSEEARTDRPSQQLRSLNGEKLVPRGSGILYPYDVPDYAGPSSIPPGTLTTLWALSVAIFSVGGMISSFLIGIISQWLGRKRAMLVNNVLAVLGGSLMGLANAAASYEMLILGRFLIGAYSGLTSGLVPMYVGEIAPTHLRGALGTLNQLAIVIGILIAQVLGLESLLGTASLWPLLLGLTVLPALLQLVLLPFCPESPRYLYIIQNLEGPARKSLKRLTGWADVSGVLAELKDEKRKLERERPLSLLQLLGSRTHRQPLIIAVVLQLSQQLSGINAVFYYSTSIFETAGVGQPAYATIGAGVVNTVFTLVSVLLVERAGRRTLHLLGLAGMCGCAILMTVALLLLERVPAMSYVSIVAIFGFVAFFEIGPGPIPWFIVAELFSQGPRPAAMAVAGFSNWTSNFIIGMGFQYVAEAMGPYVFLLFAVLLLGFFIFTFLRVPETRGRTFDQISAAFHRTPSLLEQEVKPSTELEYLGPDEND

T1 sequence (P14672 with tags, fused parts or gaps INS67[withheld]): as the sequence (chain, as listed by the source limits assumed) above

Substance: insulin
increase in EFC activity relative to the no-insulin control ([1]; 1 μM insulin): 15%
increase in EFC activity relative to the no-insulin control ([1]; 10 μM insulin): 40%

Substance: thrombin
enhancement of EFC activity over untreated cells [2]: 4.4 fold
dose-dependent increase in EFC activity (cell integrity) (HeLa/IκB-PL cells): no such increase was observed

EFC activity (enzyme fragment complementation, chemiluminescence) of intact CHO/pGLUT4-PL.1 cells [3]: 4.4 fold
Substance: thrombin protease (enzyme)
